{"source": "patent US20060089260A1", "about": "“Nitrification inhibitor treatment of grazed pasture soils” (priority 2002, published 2006)", "key": {"[1]": {"tested_on": "nitrification in soil", "conditions": "cited from earlier work"}, "[2]": {"tested_on": "pasture, mixture of perennial ryegrass (Lolium perenne) and white clover (Tifolium repens)", "assay": "Lysimeter study of pasture yield and pasture N off-take", "conditions": "for Increase in pasture yields: lysimeters", "excerpt": "(§1) Lysimeter studies, which are state-of-the-art technology for these investigations, have shown the effectiveness of a nitrification inhibitor, dicyandiamide (DCD), in reducing NO3^−—N leaching from a grazed dairy pasture under irrigation. This example used a free-draining Lismore stony silt loam (Udic Haplustept loamy skeletal) and the pasture was a mixture of perennial ryegrass (Lolium perenne) and white clover (Tifolium repens) but the process is applicable to all temperate soils and animal grazing systems.\n(§2) Each treatment had 4 replicates. The treatments were allocated to the lysimeters in a randomised design. The urea application rate of 200 kg N ha^−1 y^−1 was at the higher end of fertilizer N application rates for most farmers in the region. The rates of urea were either split into 8 applications to maximize N efficiency, or 4 applications as a cost cutting measure (i.e. reducing application costs). Urine was applied either in the spring (November) or in the autumn (April) to simulate urine patches deposited in the spring or autumn by a grazing dairy cow. The urine application rate of 1000 kg N ha^−1 was equivalent to the typical N loading rate under a cow urine patch. The combination of urea with urine treatments was included to represent a situation where urea was applied throughout the paddock, and patches of the paddock received cow urine. Two rates of phosphate (P) fertilizer were applied, 45 or 90 kg P ha^−1 y^−1, to represent the range of P application rates used by local dairy farmers. As the purpose of this study was to determine the effectiveness of DCD in reducing NO3^− leaching from grazed pasture soil including cow urine patch areas, DCD was either applied or withheld. The DCD was applied in a liquid form to simulate application in the irrigation water on irrigated dairy farms or by spray vehicle.\n(§3) DCD was applied in solution form (100 mL per lysimeter) at the rates of 7.5 kg ha^−1 after each urea application in the same day, or 15 kg ha^−1 immediately after each urine application. The DCD solution was sprayed onto the lysimeters with a watering can, simulating an application by an irrigator or spray vehicle.\nThe herbage was cut periodically to simulate typical grazing practice. All the harvested herbage was removed and dry matter yield recorded. Herbage nitrogen content was analysed. Following each herbage cut, a specially designed mechanical cow hoof was used to simulate cow treading on the lysimeters. The mechanical hoof is made of stainless steel with identical shape and size as an adult Friesian cow hoof. The hoof is mounted onto a compressed air-ram, which is driven by an air compressor system to provide a treading pressure of 220 kPa to simulate the treading pressure exerted by a cow's hoof during walking. The entire surface of the lysimeters was trodden once following each herbage cut. This was based on the inventors observation of hoof print coverage following each grazing rotation."}, "[3]": {"tested_on": "nitrification in soil (oxidation of NH4+ to NO2−)", "assay": "Lysimeter study of NO3−-N leaching from grazed dairy pasture soil (Lismore stony silt loam)", "conditions": "for Total annual NO3−-N leaching loss: lysimeter", "excerpt": "as §1\n(§4) Undisturbed soil monolith lysimeters, 50 cm diameter and 70 cm deep, were collected following well-established protocols and procedures that ensure there is minimal disturbance to the soil structure inside. The lysimeters were transported to a lysimeter facility near Lincoln University, using a specially designed trailer with air-bag suspension to minimize disturbance. The gap between the soil core and the metal casing was sealed using petroleum jelly to stop edge-flow effects. The lysimeters were then installed in the field lysimeter facility with the surface of the lysimeters at the same level as that of the surrounding soil surface, in order to maintain normal plant growing conditions.\nas §2\nUrea was applied in solid form and was broadcast over the surface of the lysimeters followed by 10 mm of irrigation.\nFresh urine was collected early in the morning during the milking session from Friesian cows, and was analysed and applied to the lysimeters on the same day.\nas §3\n(§5) From November to April (late spring to mid autumn), flood irrigation, at 100 mm, was applied to all the lysimeters at about three weekly intervals. The amount of water applied was to represent the average amount of water applied on commercial flood-irrigated dairy farms. Irrigation water was applied using an electronically controlled metering system to deliver the required volume of water to the lysimeters. From May to October (late autumn to mid spring), simulated rainfall was applied at the end of each month (if necessary), to supplement the natural rainfall received in order to equal the 75th percentile of local rainfall records for the same period of the year. This was done to create a so-called ‘worst case scenario’ in terms of rainfall inputs and to ensure a standard condition was achieved."}, "[4]": {"tested_on": "grazed dairy pasture", "assay": "Field plot experiment on Temuka soil, pasture response to DCD", "conditions": "for Pasture yield: with DCD applied", "protocol": "A field plot experiment was established on a Temuka soil on the Lincoln University Dairy farm to determine pasture response to DCD applications. A total of six plots, each 100 m^2 in area were set up. Fresh cow urine was collected from dairy cows and was analysed for N concentration. The urine was then applied to eight areas (0.2 m^2 each) within each plot to simulate urine patches deposited by the grazing cow. Urea was applied to the plots as per the rest of the farm at 200 kg N/ha. Phosphate fertilizer (superphosphate) was applied at 45 kg P/ha per year as per the rest of the dairy farm.\nThree of the plots received the DCD treatment DCD was applied in a solution form to the whole area of each plot by spray equipment similar to those used to spray other agrochemicals. The DCD was applied twice each year (one in the autumn (May) and one in the spring (August)) at 10-15 kg/ha for each application.\nSpray irrigation was applied between spring and autumn when necessary through a central pivot irrigator as per the rest of the dairy farm. Pasture from the simulated urine patch areas and from adjacent non-urine patch areas was cut and removed. Following the pasture cut, the plots were then grazed by dairy cows.\nDry matter yield was recorded from the urine patch and non-urine patch areas (Table 2). Pasture yield was calculated at the paddock scale as described above (Table 2)."}, "[5]": {"tested_on": "nitrification in soil (oxidation of NH4+ to NO2−)", "assay": "Potassium, calcium and magnesium leaching losses, paddock-averaged", "conditions": "calculated paddock average", "excerpt": "as §1, §4, §2, §3, §5"}, "[6]": {"tested_on": "nitrification in soil (oxidation of NH4+ to NO2−)", "assay": "Nitrous oxide emissions from urine-treated lysimeters, closed chamber method", "conditions": "for Total nitrous oxide emission: urine + DCD, standard error of the mean in brackets; for Nitrous oxide (N2O) emissions: with DCD", "protocol": "Nitrous oxide emissions from two treatments were determined using a closed chamber method. The enclosed chamber was fitted on top of the lysimeters inside a rubber ring on top of the lysimeter casing. At each sampling time, 3 samples, 10-15 minutes apart, were taken. Nitrous oxide was analysed using gas chromatography and daily N2O fluxes were calculated based on daily mean temperatures."}, "[7]": {"tested_on": "nitrification in soil", "conditions": "cited from earlier work", "remark": "listed apart in the source"}}, "note": "Values joined by “and” are separate entries in the source; they are usually repeats but may differ in a detail not shown here. Equal entries are not always repeated.", "data": [{"compound": "N#CN=C(N)N", "note": "[DCD, dicyandiamide]", "values": [{"measurement": "Response in pasture yield or N uptake to DCD application", "setting": "[1]; dairy cattle urine patches, field", "value": "no significant response"}, {"measurement": "Effect on nitrification rate in the soil", "setting": "[1]; measured in the field", "value": "slowed down the nitrification rate in the soil"}, {"measurement": "Increase in pasture N off-take", "setting": "[2]; autumn urine treatments", "value": 23, "unit": "%"}, {"measurement": "Increase in pasture N off-take, annual average", "setting": "[2]; average of autumn and spring", "value": 16, "unit": "%"}, {"measurement": "Increase in pasture yields", "setting": "[2]; autumn urine treatments, average", "value": 49, "unit": "%"}, {"measurement": "Increase in pasture yields", "setting": "[2]; spring urine treatments", "value": 17.5, "unit": "%"}, {"measurement": "Increase in pasture N off-take", "setting": "[2]; spring urine treatments", "value": 9, "unit": "%"}, {"measurement": "Annual average increase in pasture production", "setting": "[2]; treating the whole surface area with DCD", "value": "more than 15%"}, {"measurement": "Pasture production", "setting": "[2]; with DCD, 11.4 without DCD", "value": 15.0, "unit": "t ha−1 y−1"}, {"measurement": "Reduction of NO3−-N leaching, annual average", "setting": "[3]; average of autumn and spring urine", "value": 59, "unit": "%"}, {"measurement": "Paddock averaged NO3−-N concentration in the drainage water", "setting": "[3]; calculated paddock average, urea 200 + grazing, urine patches 25% of paddock, DCD applied", "value": 7.7, "unit": "mg N L−1"}, {"measurement": "Leaching losses from paddock (annual NO3−-N)", "setting": "[3]; calculated paddock average, urea 200 kg N ha−1 y−1 + grazing, urine patches 25% of paddock (3 cows per ha), DCD applied", "value": "46 kg N ha−1 y−1 and 46.1 kg N ha−1 y−1"}, {"measurement": "Total annual NO3−-N leaching loss", "setting": "[3]; autumn urine, P 90 treatment, with DCD (Treatment 6), 488 without DCD", "value": 112, "unit": "kg N ha−1 y−1"}, {"measurement": "Total annual NO3−-N leaching loss", "setting": "[3]; urine 1000 kg N ha−1 applied in autumn, with DCD (Treatment 4), 516 without DCD", "value": 128, "unit": "kg N ha−1 y−1"}, {"measurement": "Total annual NO3−-N leaching loss", "setting": "[3]; urine applied in spring, with DCD (Treatment 8), 397 without DCD", "value": 230, "unit": "kg N ha−1 y−1"}, {"measurement": "Reductions in the amount of urine N leached", "setting": "[3]; span spring to autumn urine application", "value": "42.1-76.1%"}, {"measurement": "Reduction of NO3−-N leaching", "setting": "[3]; urine-N applied in the autumn, average", "value": "76% and 76.1%"}, {"measurement": "Reduction of NO3−-N leaching", "setting": "[3]; urine-N applied in the spring", "value": "42% and 42.1%"}, {"measurement": "Paddock averaged pasture yield", "setting": "[4]; field plots, Temuka soil, calculated paddock average, with DCD, 11.1 without DCD", "value": 13.0, "unit": "t ha−1 y−1"}, {"measurement": "Pasture yield", "setting": "[4]; field plots, Temuka soil, non-urine patch areas, 10.3 without DCD", "value": 12.3, "unit": "t ha−1 y−1"}, {"measurement": "Pasture yield", "setting": "[4]; field plots, Temuka soil, urine patch areas, 13.4 without DCD", "value": 15.1, "unit": "t ha−1 y−1"}, {"measurement": "Increase of pasture production from the whole of the grazed pasture", "setting": "[4]; paddock average, Table 2", "value": "more than 15%"}, {"measurement": "% decrease due to DCD, calcium (Ca2+) leaching", "setting": "[5]", "value": 50, "unit": "%"}, {"measurement": "% decrease due to DCD, magnesium (Mg2+) leaching", "setting": "[5]", "value": 52, "unit": "%"}, {"measurement": "% decrease due to DCD, potassium (K+) leaching", "setting": "[5]", "value": 65, "unit": "%"}, {"measurement": "Leaching losses of magnesium (Mg2+), with DCD", "setting": "[5]; 25% of area urine patches, 17 without DCD", "value": 8, "unit": "kg ha−1y−1"}, {"measurement": "Leaching losses of potassium (K+), with DCD", "setting": "[5]; 25% of area urine patches, 48 without DCD", "value": 17, "unit": "kg ha−1y−1"}, {"measurement": "Leaching losses of calcium (Ca2+), with DCD", "setting": "[5]; 25% of area urine patches, 213 without DCD", "value": 107, "unit": "kg ha−1y−1"}, {"measurement": "Total nitrous oxide emission", "setting": "[6]; autumn application, 26.7 (5.9) without DCD", "value": "7.0 (2.3) kg N2O/ha"}, {"measurement": "Total nitrous oxide emission", "setting": "[6]; spring application, 18.0 (2.9) without DCD", "value": "4.5 (0.7) kg N2O/ha"}, {"measurement": "Nitrous oxide (N2O) emissions", "setting": "[6]; spring urine application, 18.0 without DCD", "value": 4.5, "unit": "kg N2O—N ha−1"}, {"measurement": "Nitrous oxide (N2O) emissions", "setting": "[6]; urine application in autumn, 26.7 without DCD", "value": 7.0, "unit": "kg N2O—N"}, {"measurement": "Reduction in N leached achieved by applying DCD", "setting": "[7]; DCD added to dairy farm effluent, repeated, high effluent-N loadings during winter", "value": "not sufficient to avert high N losses and environmental damage"}, {"measurement": "Reduction in the amount of NO3−-N leached", "setting": "[7]; DCD combined with farm dairy effluent (dirty water)", "value": 18, "unit": "%"}]}]}
